Experimental data published in publication PMC7051184, “C9orf72 arginine-rich dipeptide repeat proteins disrupt karyopherin-mediated nuclear import” (eLife, 2020).
Where a SMILES comes first, the peptide text is derived from it. Where no end group is shown, it is not given here.

Tests used:
[1] = biological target: T1, importin β-mediated nuclear import of Rango (Homo sapiens, UniProt Q14974); experiment: Permeabilized cell nuclear import assay, Rango, HeLa; format: cell-based
[2] = tested on: nuclear transport of NLS-NES shuttle proteins; details: synthetic peptide added to HeLa cells in the culture media; ref Vanneste et al., 2019; cited from earlier work
Excerpt: (§1) Additional studies have since investigated mechanisms by which individual DPRs may disrupt the nuclear transport apparatus. […] PR20 was previously shown by STE ...

proteasome = details: ref Gupta et al., 2017; cited from earlier work
Excerpt: Throughout this study, we observed marked differences in the behavior of GR and PR. […] Based on their divergent molecular properties, the differing behavior of GR and PR is not surprising. On one hand, bot ...

[3] = tested on: nuclear import of NLS-BSA; details: permeabilized HeLa cells; ref Shi et al., 2017; cited from earlier work
Excerpt: as §1

[4] = tested on: Nup54 and 98 FG-domain polymers; details: ref Shi et al., 2017; cited from earlier work
Excerpt: The rate of passive transport through the NPC is governed by the FG-Nup barrier ([Mohr et al., 2009]; [Timney et al., 2016]; [Frey et al., 2018]), in addition to local concentrations of importin β and RanGTP ([Ma et al., 2012]; [Kapinos et al., 2017]). R-DPR/FG-domain interactions are predicted based on the propensity of arginines to undergo cation-pi interactions with aromatic phenylalanine rings (reviewed by [Gallivan and Dougherty, 1999]; [Banani et al., 2017]). Indeed, previous interactome studies predicted R-DPR interactions with FG-Nups including Nup54, 62, 98, 153, and 214 ([Lin et al., ...

[5] = biological target: T1, importin β-mediated nuclear import of Rango; experiment: Permeabilized cell nuclear import assay, Rango, mouse primary cortical neurons; format: cell-based; details: importin β small molecule inhibitor control
Excerpt: All animal procedures were approved by the Johns Hopkins Animal Care and Use Committee. Timed pregnant C57BL/6J females (Jackson Laboratory, Bar Harbor, ME) were sacrificed by cervical dislocation at E16, cortex dissociated, and cells plated at 50,000/well on poly-D-lysine/laminin-coated, optical glass-bottom 96-well plates. Growth medium consisted of Neurobasal supplemented with B27, Glutamax, and penicillin/streptomycin (Gibco/ThermoFisher). At 5–7 days in vitro, neurons were rinsed in prewarmed PBS and permeabilized for 4 min. at 37° in a hypotonic solution containing […] Tris-HCl pH 7.5 (to cause osmotic swelling) and 50–150 mg/ml BSA (for molecular crowding/mechanical support). Following permeabilization, cells were placed on ice and rinsed 2 × 5 min in transport buffer (TRB, 20 mM HEPES, 110 mM KOAc, 2 mM Mg(OAc)2, 5 mM NaOAc, 0.5 mM EGTA, 250 mM sucrose, pH 7.3, with protease inhibitor cocktail). All rinse and assay buffers were supplemented with 50 mg/mL BSA. The optimal hypotonic buffer and BSA concentration varied by batch, and was optimized prior to each set of assays for ability to permeabilize the majority of plasma membranes while maintaining nuclear exclusion of a 70 kD fluorescent dextran (ThermoFisher).
Concentrated whole cell lysates were prepared from HEK293T cells (ATCC, mycoplasma negative and validated by STR profiling), grown in 150 mm dishes and sonicated on ice in 1X TRB in the presence of protease inhibitor cocktail (Roche). The lysates were clarified (15 min, 14000 g, 4C), snap frozen in liquid nitrogen, and stored in single use aliquots at −80C. Total HEK cell RNA was extracted using miRNEasy kits according to the manufacturers’ protocol, with DNase digestion (Qiagen). RNA concentration was measured by Nanodrop (ThermoFisher), and all 260/280 ratios were verified to be > 2.0. Energy regeneration (ER) mix consisted of 100 µM ATP, 100 µM GTP, 4 mM creatine phosphate, and 20 U/mL creatine kinase (Roche).
(§2) Reaction mixes consisting of 2.5 mg/ml lysate, ER, fluorescent cargo (200 nM Rango and YFP-M9-CFP, 500 nM GST-GFP-NLS), Hoechst, DPRs, RNA, or inhibitors (100 µM importazole (IPZ, Millipore Sigma); 0.8 mg/mL wheat germ agglutinin (WGA, Millipore Sigma) were assembled on ice during cell permeabilization. DPRs or inhibitors were allowed to equilibrate in cell lysate for at least 30 min prior to initiation of transport. Every plate included: (1) Cargo alone: fluorescent cargo, but no ER or lysate, (2) Untreated controls: fluorescent cargo, ER, and lysate, and (3) Inhibitor: fluorescent cargo, ER, lysate, and IPZ (Rango and GST-GFP-NLS reactions) or WGA (YFP-M9-CFP). Preassembled transport reactions were then transferred onto permeabilized cells via multichannel pipette, and allowed to proceed at room temperature for 2 hr (Rango, YFP-M9-CFP) or 4 hr (GST-GFP-NLS). Cells were fixed in 4% paraformaldehyde/PBS, rinsed 2x with PBS, and transferred to 50% glycerol/PBS for immediate imaging.
For a subset of neuron transport assays, transport was monitored live via time lapse imaging every 5 min for 30 min. In a subset of HeLa assays, transport reactions were centrifuged before use at 14,000g × 15 min to separate soluble and insoluble fractions. In another variation, the transport lysate + DPR and ER mix was allowed to preincubate on the permeabilized HeLa cells for 1 hour prior to initiation of transport, rinsed 1x with TRB, and transport initiated with fresh lysate, cargo, and ER.
Multiple non-overlapping fields per well (4 for time-lapse imaging, 9-16 for fixed imaging), were captured at 40x on an ImageXpress Micro XLS high-content microscope (Molecular Devices, San Jose, CA), and the ratio of nuclear to cytoplasmic fluorescence intensity was calculated using the MetaXpress automated translocation-enhanced module. Raw data were filtered to exclude autofluorescence and the mean N/C ratio from wells without ER or cell lysate was subtracted from all values.

[6] = biological target: T1, importin β-mediated nuclear import of Rango; experiment: Fractionated Rango transport assay (aggregates present or supernatant only), HeLa; format: cell-based; details: with AF647-labeled importin β
Method: A single cell-derived clone of HeLa cells (ATCC, Manassas, VA; mycoplasma negative and validated by STR profiling) were maintained in OptiMEM (Gibco/ThermoFisher) with 4% FBS and plated on uncoated optical glass-bottom 96 well plates, at appropriate densities to reach 70–90% confluence on the day of the transport assay. To permeabilize, cells were rinsed for 2 min in ice-cold PBS, and permeabilized on ice for 10 min in 15–30 µg/mL digitonin (Calbiochem, San Diego, CA) in permeabilization buffer (PRB, 20 mM HEPES, 110 mM KOAc, 5 mM Mg(OAc)2, 0.5 mM EGTA, 250 mM sucrose, pH 7.5, with protease inhibitor cocktail). Following permeabilization, cells were placed on ice and rinsed 3 × 5 min in transport buffer (TRB, 20 mM HEPES, 110 mM KOAc, 2 mM Mg(OAc)2, 5 mM NaOAc, 0.5 mM EGTA, 250 mM sucrose, pH 7.3, with protease inhibitor cocktail). The optimal digitonin concentration varied by cell density and passage number, and was optimized prior to each set of assays for the ability to permeabilize the majority of plasma membranes while maintaining nuclear exclusion of a 70 kD fluorescent dextran (ThermoFisher).
as §2
For a subset of neuron transport assays, transport was monitored live via time lapse imaging every 5 min for 30 min. […]
Multiple non-overlapping fields per well (4 for time-lapse imaging, 9-16 for fixed imaging), were captured at 40x on an ImageXpress Micro XLS high-content microscope (Molecular Devices, San Jose, CA), and the ratio of nuclear to cytoplasmic fluorescence intensity was calculated using the MetaXpress automated translocation-enhanced module. […] Resulting N/C ratios were expressed as % untreated, to permit comparisons across biological replicates.

T1 sequence (Q14974 whole entry): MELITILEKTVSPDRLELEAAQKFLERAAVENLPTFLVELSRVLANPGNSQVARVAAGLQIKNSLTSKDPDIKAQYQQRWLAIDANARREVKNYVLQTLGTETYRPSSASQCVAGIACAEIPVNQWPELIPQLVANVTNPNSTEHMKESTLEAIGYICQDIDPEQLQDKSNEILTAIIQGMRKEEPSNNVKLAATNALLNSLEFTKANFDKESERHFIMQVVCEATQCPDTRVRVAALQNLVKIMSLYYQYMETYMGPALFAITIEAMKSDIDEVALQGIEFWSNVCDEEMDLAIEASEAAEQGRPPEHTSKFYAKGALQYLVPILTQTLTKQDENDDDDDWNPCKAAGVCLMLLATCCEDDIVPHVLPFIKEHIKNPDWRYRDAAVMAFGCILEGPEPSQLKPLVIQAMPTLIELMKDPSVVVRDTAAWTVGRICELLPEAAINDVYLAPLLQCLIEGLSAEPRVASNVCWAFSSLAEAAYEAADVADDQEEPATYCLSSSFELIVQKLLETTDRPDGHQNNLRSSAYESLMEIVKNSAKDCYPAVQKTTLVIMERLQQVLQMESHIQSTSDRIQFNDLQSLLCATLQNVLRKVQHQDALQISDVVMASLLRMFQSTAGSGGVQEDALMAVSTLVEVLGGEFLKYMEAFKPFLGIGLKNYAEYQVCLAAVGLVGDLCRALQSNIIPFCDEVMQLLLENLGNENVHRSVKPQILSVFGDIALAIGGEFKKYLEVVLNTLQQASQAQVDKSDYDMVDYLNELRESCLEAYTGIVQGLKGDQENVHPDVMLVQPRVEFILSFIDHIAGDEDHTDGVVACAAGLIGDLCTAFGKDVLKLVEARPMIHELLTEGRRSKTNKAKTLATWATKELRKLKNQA

OCCCCCCO [1,6-hexanediol]
Reversal of mild nuclear import inhibition ([1]; 25 µM PR10): neither 1,6-hexanediol nor exogenous importin β could reverse mild nuclear import inhibition
Effect on Rango import at baseline ([1]; no DPR): caused dose-dependent inhibition at baseline

N=C(N)NCCC[C@H](NC(=O)CNC(=O)[C@H](CCCNC(=N)N)NC(=O)CNC(=O)[C@H](CCCNC(=N)N)NC(=O)CNC(=O)[C@H](CCCNC(=N)N)NC(=O)CNC(=O)[C@H](CCCNC(=N)N)NC(=O)CNC(=O)[C@H](CCCNC(=N)N)NC(=O)CNC(=O)[C@H](CCCNC(=N)N)NC(=O)CNC(=O)[C@H](CCCNC(=N)N)NC(=O)CNC(=O)[C@H](CCCNC(=N)N)NC(=O)CNC(=O)[C@H](CCCNC(=N)N)NC(=O)CNC(=O)[C@H](CCCNC(=N)N)NC(=O)CNC(=O)[C@H](CCCNC(=N)N)NC(=O)CNC(=O)[C@H](CCCNC(=N)N)NC(=O)CNC(=O)[C@H](CCCNC(=N)N)NC(=O)CNC(=O)[C@H](CCCNC(=N)N)NC(=O)CNC(=O)[C@H](CCCNC(=N)N)NC(=O)CNC(=O)[C@H](CCCNC(=N)N)NC(=O)CNC(=O)[C@H](CCCNC(=N)N)NC(=O)CNC(=O)[C@H](CCCNC(=N)N)NC(=O)CNC(=O)[C@H](CCCNC(=N)N)NC(=O)CN)C(=O)O [GR20]
Effect on nuclear transport of fluorescent NLS-NES shuttle proteins [2]: unable to impede nuclear transport

N=C(N)NCCC[C@H](NC(=O)[C@@H]1CCCN1C(=O)[C@H](CCCNC(=N)N)NC(=O)[C@@H]1CCCN1C(=O)[C@H](CCCNC(=N)N)NC(=O)[C@@H]1CCCN1C(=O)[C@H](CCCNC(=N)N)NC(=O)[C@@H]1CCCN1C(=O)[C@H](CCCNC(=N)N)NC(=O)[C@@H]1CCCN1C(=O)[C@H](CCCNC(=N)N)NC(=O)[C@@H]1CCCN1C(=O)[C@H](CCCNC(=N)N)NC(=O)[C@@H]1CCCN1C(=O)[C@H](CCCNC(=N)N)NC(=O)[C@@H]1CCCN1C(=O)[C@H](CCCNC(=N)N)NC(=O)[C@@H]1CCCN1C(=O)[C@H](CCCNC(=N)N)NC(=O)[C@@H]1CCCN1C(=O)[C@H](CCCNC(=N)N)NC(=O)[C@@H]1CCCN1C(=O)[C@H](CCCNC(=N)N)NC(=O)[C@@H]1CCCN1C(=O)[C@H](CCCNC(=N)N)NC(=O)[C@@H]1CCCN1C(=O)[C@H](CCCNC(=N)N)NC(=O)[C@@H]1CCCN1C(=O)[C@H](CCCNC(=N)N)NC(=O)[C@@H]1CCCN1C(=O)[C@H](CCCNC(=N)N)NC(=O)[C@@H]1CCCN1C(=O)[C@H](CCCNC(=N)N)NC(=O)[C@@H]1CCCN1C(=O)[C@H](CCCNC(=N)N)NC(=O)[C@@H]1CCCN1C(=O)[C@H](CCCNC(=N)N)NC(=O)[C@@H]1CCCN1C(=O)[C@H](CCCNC(=N)N)NC(=O)[C@@H]1CCCN1)C(=O)O [PR20] (H-PRPRPRPRPRPRPRPRPRPRPRPRPRPRPRPRPRPRPRPR-OH; N-terminus and C-terminus assumed)
Inhibition of proteosomal degradation (proteasome): shown to inhibit proteosomal degradation
Effect on nuclear import of NLS-BSA [3]: impeded nuclear import of NLS-BSA
Effect on nuclear transport of fluorescent NLS-NES shuttle proteins [2]: unable to impede nuclear transport
Binding to FG-domain polymers [4]: bind and stabilize Nup54 and 98 FG-domain polymers

CC(Nc1nc(N2CCCC2)nc2ccccc12)c1ccccc1 (stereo not shown) [importazole, Importazole, reference compound]
Effect on Rango import in permeabilized neurons [5]: can be inhibited

AF488-GR10: GR10 labeled with Alexa Fluor 488 C5-maleimide (GRGRGRGRGRGRGRGRGRGRKC(Alexa Fluor 488 C5‑maleimide))
Location of AF488-labeled DPR in fractionated transport reactions (confocal) [6]: fully sedimented into the pellet

AF488-PR10: PR10 labeled with Alexa Fluor 488 C5-maleimide (PRPRPRPRPRPRPRPRPRPRKC(Alexa Fluor 488 C5‑maleimide))
Location of AF488-labeled DPR in fractionated transport reactions (confocal) [6]: remained in the supernatant and was present at the nuclear envelope
